According to patent publication US20150315241A1, “Antibiotic Peptides” (priority 2007, published 2015):
Converted amounts (≈) assume the structure as drawn. Where a SMILES comes first, the peptide text is derived from it. [ ]: non-standard residue; d: D form. Cha = N[C@@H](CC1CCCCC1)C(=O)O; NMeL = CN[C@@H](CC(C)C)C(=O)O; Orn = NCCC[C@H](N)C(=O)O

Key:
[1] = test system: E. coli 45849; test: Growth inhibition assay (MIC); type: cell-based, Escherichia coli
Procedure: (§1) The minimal inhibition concentrations (MIC) of the apidaecin-derived peptides and peptide-derivatives were determined by a growth inhibition assay using a serial peptide dilution in sterilized round-bottom 96-well plates (polystyrene, U-bottom, Greiner Bio-One GmbH) with a final volume of 100 μL per well. The bacteria, e.g., E. coli BL21 A1, were grown in nutrient broth (NB, Carl Roth GmbH+Co. KG, Karlsruhe, Germany) at 37° C. over night. To each well of the 96-well plate, 50 μL of the overnight culture adjusted to 5×10^6 CFU/mL in 1% TSB were added. Lyophilized peptides and peptidomimetics were dissolved in 1% TSB (tryptic soy broth) or water to give a final concentration of 250 μg/mL. Fifty μL of the peptide or peptidomimetics solution were added to the first well of a row on the plate and mixed. Fifty μL of the first well containing the peptide solution were transferred to the second well, mixed and again 50 μL transferred to the next well and so on. Thereby, a two-fold dilution series was obtained starting at 250 μg/mL in the first well down to 120 ng/mL in the 12th well of a row giving a final peptide or peptidomimetics concentration from 125 μg/mL (well 1) to 60 ng/mL (well 12). Plates were incubated at 37° C. for 20 hrs. The absorbance was measured at 595 nm using a TECAN micro plate spectrophotometer (Tecan, Germany). All peptides and peptidomimetics were measured in triplicates. Sterilized water was used as a negative control.
(§2) The following multidrug resistant bacteria strains were tested: • Eschericha coli 45849 and D31, • Klebsiella pneumoniae 123132 and K6, • Salmonella typhi S5 and Salmonella enterica subsp. enterica serovar Typhimurium (ATCC 700408), • Rhizobium radiobacter (ATCC 15955 deposited as Agrobacterium tumefaciens).

[2] = test system: S. typhi S5; type: cell-based, Salmonella typhi; conditions: S5, 20 h
Procedure: as §1, §2

[3] = test system: E. coli D31; type: cell-based, Escherichia coli; conditions: D31, 20 h
Procedure: as §1, §2

[4] = test system: K. Pneumonia 123132; test: Growth inhibition assay (MIC); type: cell-based, Klebsiella pneumoniae
Procedure: as §1, §2

[5] = test system: K. Pneumonia K6, ATCC 700603; test: Growth inhibition assay (MIC); type: cell-based, Klebsiella pneumoniae; conditions: multidrug resistant strain; 1% TSB, 37° C., 20 hrs
Procedure: as §1, §2

[6] = test system: S. enterica subsp. Enterica serovar. typhi G10215 ATCC 700408; type: cell-based, Salmonella enterica; conditions: ATCC 700408, 20 h
Procedure: as §1, §2

[7] = test system: R. radiobatter ATCC 15955; test: Growth inhibition assay (MIC); type: cell-based, Rhizobium radiobacter
Procedure: as §1, §2

[8] = multidrug resistant strain, 1% TSB, 37° C., 20 hrs

SMILES | MIC E. coli 45849 ([1]; 45849, 20 h) | MIC S. typhi S5 [2] | MIC E. coli D31 [3] | MIC K. Pneumonia 123132 ([4]; 20 h) | MIC K. Pneumonia K6, ATCC 700603 [5] | MIC S. enterica subsp. Enterica serovar. typhi G10215 ATCC 700408 [6] | MIC R. radiobatter ATCC 15955 ([7]; ATCC 15955, 20 h) | MIC E. coli 45849 [1, 8] | MIC K. Pneumonia 123132 [4, 8] | MIC R. radiobatter ATCC 15955 [7, 8]
CC[C@H](C)[C@H](NC(=O)[C@H](Cc1ccc(O)cc1)NC(=O)[C@@H](NC(=O)[C@@H]1CCCN1C(=O)[C@H](CCCNC(=N)N)NC(=O)[C@H](CC(N)=O)NC(=O)[C@H](CC(N)=O)NC(=O)[C@@H](N)CCCN)C(C)C)C(=O)N1CCC[C@H]1C(=O)N[C@@H](CCCN)C(=O)N1CCC[C@H]1C(=O)N[C@@H](CCCNC(=N)N)C(=O)N1CCC[C@H]1C(=O)N1CCC[C@H]1C(=O)N[C@@H](Cc1c[nH]cn1)C(=O)N1CCC[C@H]1C(=O)N[C@@H](CCCNC(=N)N)C(=O)N[C@@H](CC1CCCCC1)C(N)=O [compound 35] (H-[Orn]NNRPVYIP[Orn]PRPPHPR[Cha]-NH2) | 16 µg/mL (≈ 7.3 µM) | 16 µg/mL (≈ 7.3 µM) | 8 µg/mL (≈ 3.65 µM) | 32 µg/mL (≈ 14.6 µM) | 16 µg/mL (≈ 7.3 µM) | 4 to 8 µg/mL | 2.6 µg/mL (≈ 1.19 µM) | – | – | –
CC[C@H](C)[C@H](NC(=O)[C@H](Cc1ccc(O)cc1)NC(=O)[C@@H](NC(=O)[C@@H]1CCCN1C(=O)[C@H](CCCNC(=N)N)NC(=O)[C@H](CC(N)=O)NC(=O)[C@H](CC(N)=O)NC(=O)[C@H](CCCN)NC(C)=O)C(C)C)C(=O)N1CCC[C@H]1C(=O)N[C@@H](CCCNC(=N)N)C(=O)N1CCC[C@H]1C(=O)N[C@@H](CCCNC(=N)N)C(=O)N1CCC[C@H]1C(=O)N1CCC[C@H]1C(=O)N[C@@H](Cc1c[nH]cn1)C(=O)N1CCC[C@H]1C(=O)N[C@@H](CCCNC(=N)N)C(=O)N(C)[C@@H](CC(C)C)C(N)=O [compound 36] (Ac-[Orn]NNRPVYIPRPRPPHPR[NMeL]-NH2) | – | 16 to 32 µg/mL | 8 µg/mL (≈ 3.56 µM) | – | 64 to 128 µg/mL | 4 to 8 µg/mL | – | 4 µg/mL (≈ 1.78 µM) | 32 µg/mL (≈ 14.2 µM) | 1.3 µg/mL (≈ 0.578 µM)
CC[C@H](C)[C@H](NC(=O)[C@H](Cc1ccc(O)cc1)NC(=O)[C@@H](NC(=O)[C@@H]1CCCN1C(=O)[C@H](CCCNC(=N)N)NC(=O)[C@H](CC(N)=O)NC(=O)[C@H](CC(N)=O)NC(=O)CN)C(C)C)C(=O)N1CCC[C@H]1C(=O)N[C@@H](CCCNC(=N)N)C(=O)N1CCC[C@H]1C(=O)N[C@@H](CCCNC(=N)N)C(=O)N1CCC[C@H]1C(=O)N1CCC[C@H]1C(=O)N[C@@H](Cc1c[nH]cn1)C(=O)N1CCC[C@H]1C(=O)N[C@@H](CCCNC(=N)N)C(=O)N[C@@H](CC1CCCCC1)C(N)=O [compound 37] (H-GNNRPVYIPRPRPPHPR[Cha]-NH2) | – | 16 µg/mL (≈ 7.35 µM) | 8 µg/mL (≈ 3.68 µM) | – | 32 µg/mL (≈ 14.7 µM) | 8 µg/mL (≈ 3.68 µM) | – | 16 µg/mL (≈ 7.35 µM) | 16 µg/mL (≈ 7.35 µM) | 10.5 µg/mL (≈ 4.83 µM)
CC[C@H](C)[C@H](NC(=O)[C@H](Cc1ccc(O)cc1)NC(=O)[C@@H](NC(=O)[C@@H]1CCCN1C(=O)[C@H](CCCNC(=N)N)NC(=O)[C@H](CC(N)=O)NC(=O)[C@H](CC(N)=O)NC(=O)[C@H](CCCN)NC(C)=O)C(C)C)C(=O)N1CCC[C@H]1C(=O)N[C@@H](CCC(N)=O)C(=O)N1CCC[C@H]1C(=O)N[C@@H](CCCNC(=N)N)C(=O)N1CCC[C@H]1C(=O)N1CCC[C@H]1C(=O)N[C@@H](Cc1c[nH]cn1)C(=O)N1CCC[C@H]1C(=O)N[C@@H](CCCNC(=N)N)C(=O)N[C@@H](Cc1ccccc1)C(N)=O [compound 41] (Ac-[Orn]NNRPVYIPQPRPPHPRF-NH2) | – | 8 µg/mL (≈ 3.57 µM) | >128 µg/mL | – | 128 µg/mL (≈ 57.1 µM) | 8 µg/mL (≈ 3.57 µM) | – | 4 µg/mL (≈ 1.79 µM) | 32 µg/mL (≈ 14.3 µM) | 5.25 µg/mL (≈ 2.34 µM)
